Where two headings read alike, the source gives them in different places.
Legend:
A2780 cells = assay: Determination of cell activity (CellTiter-Glo Luminescent Cell Viability Assay); format: cell-based; conditions: A2780 cells, 7 days treatment, CellTiter-Glo, read-out: IC50
Procedure: To examine the effect of compounds on cell viability, ATP was directly quantified using the CellTiter-Glo Luminescent Cell Viability Assay (Promega) to determine the number of viable cells.
Cell density was selected based on optimal signal intensity and growth curve for the inoculation of A2780 cells. The cells were incubated at 37° C. and 5% C02 overnight. Cells were treated with blank group, DMSO group and compound group, respectively, at 37° C. and 5% C02 for 7 days. The prepared solutions were added to cell wells according to the instructions of CellTiter-Glo (Promega), and shaken at a speed of 400 g for 2 min. Then, the solutions were centrifuged at 1000 g for 2 min and incubated at rest for 30 min to ensure a complete reaction. […] readings were taken using a multi-label microplate reader (Perkin Elmer) to calculate IC50 values.

MOLM-13-luc tumor cells = assay: In vivo pharmacodynamic test, MOLM-13-luc orthotopic mouse model of leukemia
Procedure: The efficacy of compounds was evaluated using an orthotopic mouse model of leukemia. […] After the cell confluence reached 80%-90%, the cells were subcultured into separate flasks. The tumor cells in the logarithmic growth phase were used for the inoculation of tumors in vivo. Approximately 7 days after the inoculation of the tumor cells, according to the body weights of the animals and optical signal intensity at tumor sites, the animals were randomly divided into 4 groups, namely solvent control group [5% TPGS in PH 8 buffer (50 mM potassium dihydrogen phosphate buffer), BID, intragastric administration], IMT1B (50 mpk, BID, intragastric administration), A1-1-5 (25 mpk, BID, intragastric administration) and A1-1-5 (50 mpk, BID, intragastric administration), with 10 animals in each group. Tumor growth was monitored, and behavioral changes in the animals were also monitored.
During the experiment, all the animals were weighed twice a week. The percentage of body weight change (BW change, %) was calculated using the following formula: BW change=(BW Day X/BW Day 0)×100, where BW Day X is the body weight of the animals on the day of administration, and BW Day 0 is the body weight of the animals on the day of grouping.
Mice were imaged twice a week according to their status using the small animal living imaging system IVIS Lumina III (Perkin Elmer). The signal intensity of the bioluminescence imaging (BLI, unit: photons/s) at tumor cell inoculation sites in mice was monitored, which served as the main indicator for evaluating tumor growth and the efficacy of drugs. The specific operation procedures were as follows.
After the mice were intraperitoneally injected with D-luciferin (manufactured by Perkin Elmer, 15 mg/mL solution, injected at […] according to the body weight of experimental animals), the animals were subjected to inhalation anesthesia using 1%-2% isoflurane. Approximately 10 minutes after the injection of D-luciferin, the animals were imaged using IVIS Lumina III. The imaging results were analyzed and processed using the Living Image software (Perkin Elmer), and the optical signal intensity in the ROI (regions of interest) of the whole body of each animal was calculated. […] The administration and imaging were continued for the animals in other groups. At the endpoint of the experiment, the median survival times of all groups throughout the experiment were calculated, and the curves were plotted.

POLRMT = molecular target: T1, POLRMT (Homo sapiens, UniProt O00411); assay: Compound selectivity by real-time fluorescent quantitative PCR in A549 cells: genes regulated by POLRMT; format: cell-based; conditions: 72 h, qPCR ΔΔCt, significance by T-Test
T1 construct: endogenous in cells; host or cells: A549
Procedure: (§1) Tumor cells A549 were plated at an appropriate density and incubated overnight. The cells were treated with compounds or DMSO for 72 h, and total cellular RNA was extracted according to the instructions of TaqMan™ Fast Advanced Cells-to-CT™ Kit (Invitrogen #A35377). Briefly, the cells were washed with PBS twice. Supernatants were discarded, and 50 μL/well of lysis buffer was added. The cells were incubated at room temperature for 5 min. Then, 5 μL of stop buffer was added. The mixture was left to stand for 2 min and then placed on ice in preparation for reverse transcription and extraction of cDNA. QPCR was carried out according to the requirements of TaqMan® Fast Advanced Master Mix (Invitrogen). Eukaryotes have three different nuclear RNA polymerases, namely RNA polymerase I (RNA pol I), RNA polymerase II (RNA pol II) and RNA polymerase III (RNA pol III). To eliminate the effect of the compounds on the inhibition of the activity of other RNA polymerases, we selected 18S rRNA, 28S rRNA; β-actin; 5S rRNA; ND1, CYTB and COX1 transcriptionally regulated by RNA Pol I, II, III and POLRMT. Whether the mRNA levels of these genes were inhibited was detected. The qPCR results were analyzed by the ΔΔCt method and statistically analyzed by Graphpad8.0. The significant differences were statistically analyzed by T-Test.

[1] = system: RNA polymerase I (RNA pol I); assay: Compound selectivity by real-time fluorescent quantitative PCR in A549 cells: genes regulated by RNA pol I; format: cell-based; conditions: for Expression of genes regulated by RNA pol I (18S, 28S): 72 h, qPCR ΔΔCt, significance by T-Test
Procedure: as §1

[2] = system: RNA polymerase II (RNA pol II); assay: Compound selectivity by real-time fluorescent quantitative PCR in A549 cells: gene regulated by RNA pol II; format: cell-based; conditions: for Expression of genes regulated by RNA pol II (β-actin): 72 h, qPCR ΔΔCt, significance by T-Test
Procedure: as §1

[3] = system: RNA polymerase III (RNA pol III); assay: Compound selectivity by real-time fluorescent quantitative PCR in A549 cells: gene regulated by RNA pol III; format: cell-based; conditions: for Expression of genes regulated by RNA pol III (5S): 72 h, qPCR ΔΔCt, significance by T-Test
Procedure: as §1

[4] = Pharmacokinetic assay in CD1 mice; format: in vivo; conditions: for F: bioavailability; for maximum plasma concentration Cmax compared with IMT1B / plasma exposure AUC compared with IMT1B: comparison in words; for half-life: Table I-3, read-out: T1/2 (h) for oral administration (converted)
Procedure: pharmacokinetic assay of compounds was carried out in CD1 mice aged 6-8 weeks with IMT1B as a positive control. The compounds and the positive control were dissolved in 30% aqueous hydroxypropyl-β-cyclodextrin solution containing 25% PEG400 and administered via intravenous injection (1 mg/kg) or intragastric administration (5 mg/kg). Blood samples were collected at 0.033, 0.083, 0.25, 0.5, 1, 2, 4, 8, 24 h and 0.083, 0.25, 0.5, 1, 2, 4, 8, 24 h respectively after administration.
The concentration of the compounds in plasma samples was analyzed using the LC-MS/MS method. Pharmacokinetic calculations were performed using WinNonlin (Phoenix™, version 8.3) or other similar software. The following pharmacokinetic parameters were calculated from the plasma concentration vs. time data: for intravenous administration: T1/2, C0, AUClast, AUCinf, MRTinf, Cl, Vss, regression coefficient, etc.; for oral administration: T1/2, Cmax, Tmax, AUClast, AUCinf, bioavailability, etc. The above parameter data were statistically calculated and described using descriptive statistics such as mean value and standard deviation.

[5] = at the same dose (50 mpk, BID, intragastric)
[6] = main pharmacokinetic parameters, Table I-4
[7] = mouse, plasma, po, 5 mg/kg, main pharmacokinetic parameters, Table I-4
[8] = mouse, plasma, po, 5 mg/kg, main pharmacokinetic parameters, Table I-4, read-out: Cmax
[9] = mouse, plasma, po, intragastric administration 5 mg/kg

T1 sequence (O00411 42-1230): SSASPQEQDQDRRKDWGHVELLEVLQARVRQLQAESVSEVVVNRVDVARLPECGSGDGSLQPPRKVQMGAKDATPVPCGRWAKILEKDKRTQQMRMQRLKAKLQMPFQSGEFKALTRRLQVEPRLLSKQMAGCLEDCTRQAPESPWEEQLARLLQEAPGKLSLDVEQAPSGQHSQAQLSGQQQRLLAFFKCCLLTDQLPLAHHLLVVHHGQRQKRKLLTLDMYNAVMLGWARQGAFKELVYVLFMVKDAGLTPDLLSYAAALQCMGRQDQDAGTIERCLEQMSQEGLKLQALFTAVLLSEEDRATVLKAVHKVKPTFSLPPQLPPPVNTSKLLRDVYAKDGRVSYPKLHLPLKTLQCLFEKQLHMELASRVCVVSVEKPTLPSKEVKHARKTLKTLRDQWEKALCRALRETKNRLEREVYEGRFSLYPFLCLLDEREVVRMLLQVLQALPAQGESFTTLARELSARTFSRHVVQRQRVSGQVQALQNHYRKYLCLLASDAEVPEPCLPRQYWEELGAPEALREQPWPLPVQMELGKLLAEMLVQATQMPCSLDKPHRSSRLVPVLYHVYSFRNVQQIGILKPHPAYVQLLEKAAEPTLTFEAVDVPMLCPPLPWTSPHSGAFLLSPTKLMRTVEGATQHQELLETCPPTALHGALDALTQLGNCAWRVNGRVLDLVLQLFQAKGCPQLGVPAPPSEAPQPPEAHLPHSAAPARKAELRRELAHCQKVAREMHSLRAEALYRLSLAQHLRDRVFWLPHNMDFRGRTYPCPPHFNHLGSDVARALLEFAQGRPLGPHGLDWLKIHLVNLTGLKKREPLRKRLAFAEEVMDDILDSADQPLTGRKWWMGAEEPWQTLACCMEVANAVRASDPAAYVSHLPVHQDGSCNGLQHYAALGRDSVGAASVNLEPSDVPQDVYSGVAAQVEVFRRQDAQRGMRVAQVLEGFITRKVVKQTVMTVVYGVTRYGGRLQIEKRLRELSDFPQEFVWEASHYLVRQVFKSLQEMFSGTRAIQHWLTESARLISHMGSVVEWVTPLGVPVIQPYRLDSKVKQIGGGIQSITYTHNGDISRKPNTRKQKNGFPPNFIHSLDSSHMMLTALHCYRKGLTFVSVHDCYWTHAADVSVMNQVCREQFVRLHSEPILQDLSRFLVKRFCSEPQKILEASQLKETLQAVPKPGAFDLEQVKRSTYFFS

| IC50 (A2780 cells; Homo sapiens, 168 h) [nM] | F ([4]; Table I-4) [%] | T1/2 [4, 6] [h] | half-life [4, 9] [h] | SMILES | Expression of genes regulated by POLRMT (ND1, CYTB, COX1) (POLRMT) | Expression of genes regulated by RNA pol I (18S, 28S) [1] | Expression of genes regulated by RNA pol II (β-actin) [2] | Expression of genes regulated by RNA pol III (5S) [3] | maximum plasma concentration Cmax compared with IMT1B [4] | plasma exposure AUC compared with IMT1B [4] | AUC(0-inf) [4, 7] [ng·h/mL] | AUC(0-t) [4, 7] [ng·h/mL] | Cmax [4, 8] [ng/mL] | also measured |
| --- | --- | --- | --- | --- | --- | --- | --- | --- | --- | --- | --- | --- | --- | --- |
|  | 80.236 | 2.445 |  | C[C@@H](Oc1ccc2c(-c3ccc(F)cc3Cl)cc(=O)oc2c1)C(=O)N1CCC[C@H](C(=O)O)C1 [IMT1B, reference compound] | (++) ((++) represents P < 0.01) | (-) ((-) represents P≥ 0.05) | (-) ((-) represents P≥ 0.05) | (-) ((-) represents P≥ 0.05) |  |  |  |  |  | IC50 (A2780 cells): 20 to 100 nM; inhibition of the activity of RNA polymerase I ([1]; qPCR, in words): do not inhibit; inhibition of the activity of RNA polymerase II ([2]; qPCR, in words): do not inhibit; inhibition of the activity of RNA polymerase III ([3]; qPCR, in words): do not inhibit; T1/2 (h) for oral administration ([4]; intragastric administration 5 mg/kg, Table I-3): 2.445 h; AUCInf [4, 6]: 24420.076 ng·h/mL; AUClast [4, 6]: 24389.836 ng·h/mL; Cmax [4, 6]: 7300 ng/mL |
| 20 to 100 | 137.555 | 3.985 | 3.98 | C[C@H](Oc1ccc2c(-c3ccc(F)cc3Cl)cc(=O)oc2c1)C(=O)c1cccc(C(=O)O)c1 [Compound A2-1-5] |  |  |  |  | significantly superior to IMT1B | significantly superior to IMT1B | 9870 | 9740 | 1060 |  |
| 20 to 100 |  |  | 6.91 | CC(Oc1ccc2c(-c3ccc(F)cc3Cl)cc(=O)oc2c1)C(=O)c1ccncc1 (stereo not drawn) [α-13] |  |  |  |  |  |  |  |  |  |  |

| SMILES | IC50 (A2780 cells; Homo sapiens, 168 h) [nM] | F ([4]; Table I-4) [%] | T1/2 [4, 6] [h] | half-life [4, 9] [h] | Expression of genes regulated by POLRMT (ND1, CYTB, COX1) (POLRMT) | Expression of genes regulated by RNA pol I (18S, 28S) [1] | Expression of genes regulated by RNA pol II (β-actin) [2] | Expression of genes regulated by RNA pol III (5S) [3] | maximum plasma concentration Cmax compared with IMT1B [4] | plasma exposure AUC compared with IMT1B [4] | AUC(0-inf) [4, 7] [ng·h/mL] | AUC(0-t) [4, 7] [ng·h/mL] | Cmax [4, 8] [ng/mL] | also measured |
| --- | --- | --- | --- | --- | --- | --- | --- | --- | --- | --- | --- | --- | --- | --- |
| C[C@@H](Oc1ccc2c(-c3ccc(F)cc3Cl)cc(=O)oc2c1)C(=O)c1cccc(C(=O)O)c1 [Compound A1-1-5] | 20 to 100 | 85.846 | 3.158 | 3.16 | (++) ((++) represents P < 0.01) | (-) ((-) represents P≥ 0.05) | (-) ((-) represents P≥ 0.05) | (-) ((-) represents P≥ 0.05) | significantly superior to IMT1B | significantly superior to IMT1B | 179000 | 178000 | 44100 | efficacy at a relatively low dose (MOLM-13-luc tumor cells; MOLM13 orthotopic hematological tumor model, BID intragastric): effective at a relatively low dose; tumor inhibitory effect (BLI imaging) (MOLM-13-luc tumor cells; MOLM13 orthotopic hematological tumor model, BID intragastric, 25 and 50 mpk): good tumor inhibitory effect; median survival time compared with IMT1B (MOLM-13-luc tumor cells; [5]): significantly superior to IMT1B; tumor inhibition compared with IMT1B (MOLM-13-luc tumor cells; [5]): significantly superior to IMT1B |

Source: US20260200885A1, “BENZOPYRONE COMPOUNDS AS WELL AS PREPARATION METHOD THEREFOR AND USE THEREOF” (CHENGDU DI’AO JIUHONG PHARMACEUTICAL FACTORY, priority 2022, published 2026)
